This passage reports IC50 results from ChEMBL document CHEMBL1154483, “Mechanistic aspects of benzothiazepines: a class of antiarrhythmic drugs” (Eur J Med Chem, 2009).

In general, IC50 refers to the midpoint of a concentration-inhibition curve.

The experiment can be described thus: Inhibition of calcium channel.

Regarding `COc1ccc([C@@H]2Sc3ccccc3N(CCN(C)CCc3ccc(OC)c(OC)c3)C(=O)[C@@H]2OC(C)=O)cc1`, the IC50 was determined as 6.5 nM. In the case of `COc1ccc([C@@H]2Sc3ccccc3N(CCN(C)C)C(=O)[C@@H]2OC(C)=O)cc1` [DILTIAZEM] it was 337 nM.
